These results are taken from US9820483B2, “Microbial composition” (Rohm and Haas Company, priority 2011, dated 2017).

The structures appear in SMILES notation.

This assay concerns E. coli ATCC #10536. Put plainly: Synergy test: high resolution MBC microtiter plate assay in phosphate buffer containing 35% dipropylene glycol, 15 seconds contact. The class given is cell-based, Escherichia coli. Conditions: E. coli 10536, complete kill in 15 seconds, phosphate buffer with 35% DPG. An excerpt: One measure of synergy is the industrially accepted method described by Kull, F. C.; Eisman. P. C.; Sylwestrowicz, H. D. and Mayer, R. L., in Applied Microbiology 9:538-541 (1961), using the ratio determined by the formula: Qa/QA÷Qb/QB=Synergy Index (“SI”) wherein: QA=concentration of compound A (first component) in percent, acting alone, which produced an end point (MBC of Compound A). […]=concentration of compound A in percent, in the mixture, which produced an end point. QB=concentration of compound B (second component) in percent, acting alone, which produced an end point (MBC of Compound B). Qb=concentration of compound B in percent, in the mixture, which produced an end point.
When the sum of Qa/QA and Qb/QB is greater than one, antagonism is indicated. […] The lower the SI, the greater is the synergy shown by that particular mixture. The minimum biocidal concentration (MBC) of a microbicide is the lowest concentration tested under a specific set of conditions that provides complete kill of the tested microorganisms.
Synergy tests were conducted using standard microtiter plate assays with phosphate buffer containing 35% dipropylene glycol (DPG). In this method, a wide range of combinations of chemicals was tested by conducting high resolution MBC assays of Component (A) in the presence of various concentrations of Component (B). High resolution MBCs were determined by adding varying amounts of microbicide to one column of a microtiter plate and doing subsequent ten-fold dilutions using an automated liquid handling system to obtain a series of closely spaced endpoints. The MBC plate was inoculated one column at a time with the test microorganism. An aliquot of the inoculated well was transferred at 15 seconds to a plate containing a neutralizing agent (D/E Neutralizing Broth), mixed and held for 5 minutes before being transferred to a growth plate containing trypticase soy broth (TSB). The TSB plate was incubated at 37° C. and read for the presence/absence of growth at 24 hours. The lowest level tested that provided complete kill (as evidenced by no growth in the microtitre plate) of the test organisms in 15 seconds is the minimum biocidal concentration (MBC).
The synergy of the combinations of the present invention was determined against a bacterium, Esherichia coli (E. coli—ATCC #10536), at a concentration of approximately 1×10^8 bacteria per mL. This microorganism is representative of natural contaminants in many consumer and industrial applications.

For the molecule `C=C(C)C1CCC(C)C(O)C1` (stereo not shown) [2-methyl-5-(prop-1-en-2-yl)cyclohexanol], the “MBC of the component acting alone (QA or QB; Qa or Qb with the other component at 0)” value is listed as 0.5 weight %.
